What was measured:
Experiment in all cases: relative viability (nuclei count vs DMSO), 5 days (fraction); higher = more cells survive
NCI-H727 = tested on: NCI-H727
Summary of the method: (§1)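 Dosing by pin tool came one day after lung cancer cell lines were seeded in 1536-well plates, using either one drug or a fixed anchor-drug dose plus five library-drug doses (not always all listed) in √10 steps. After 5 days, nuclei were counted on 4× images. Relative viability is treated-well nuclei count divided by vehicle-well nuclei count, and values are medians of duplicate plates.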

LCLC-103H = tested on: LCLC-103H
Summary of the method: as §1

COR-L 105 = tested on: COR-L 105
Summary of the method: as §1

UMC-11 = tested on: UMC-11
Summary of the method: as §1

EKVX = tested on: EKVX
Summary of the method: as §1

NCI-H661 = tested on: NCI-H661
Summary of the method: as §1

NCI-H1650 = tested on: NCI-H1650
Summary of the method: as §1

H3255 = tested on: H3255
Summary of the method: as §1

HCC-44 = tested on: HCC-44
Summary of the method: as §1

NCI-H520 = tested on: NCI-H520
Summary of the method: as §1

NCI-H1651 = tested on: NCI-H1651
Summary of the method: as §1

## O=c1[nH]c2ccccc2n1C1CCN(CCCC(c2ccc(F)cc2)c2ccc(F)cc2)CC1 [Pimozide] + Cc1cc(Nc2cc(N3CCN(C)CC3)nc(Sc3ccc(NC(=O)C4CC4)cc3)n2)n[nH]1 [Tozasertib] (partner 0.1 µM)
NCI-H727; first compound 0.08 µM
  relative viability: 0.734
NCI-H727; first compound 0.253 µM
  relative viability: 0.694
NCI-H727; first compound 0.8 µM
  relative viability: 0.509
NCI-H727; first compound 2.53 µM
  relative viability: 0.65
NCI-H727; first compound 8 µM
  relative viability: 0.496
LCLC-103H; first compound 0.08 µM
  relative viability: 0.353
LCLC-103H; first compound 0.253 µM
  relative viability: 0.409
LCLC-103H; first compound 0.8 µM
  relative viability: 0.361
LCLC-103H; first compound 2.53 µM
  relative viability: 0.422
LCLC-103H; first compound 8 µM
  relative viability: 0.446
COR-L 105; first compound 0.253 µM
  relative viability: 0.327
COR-L 105; first compound 0.8 µM
  relative viability: 0.367
COR-L 105; first compound 2.53 µM
  relative viability: 0.301
COR-L 105; first compound 8 µM
  relative viability: 0.239
UMC-11; first compound 0.08 µM
  relative viability: 0.188
UMC-11; first compound 0.253 µM
  relative viability: 0.201
UMC-11; first compound 0.8 µM
  relative viability: 0.205
UMC-11; first compound 2.53 µM
  relative viability: 0.205
UMC-11; first compound 8 µM
  relative viability: 0.205
EKVX; first compound 0.08 µM
  relative viability: 0.35
EKVX; first compound 0.253 µM
  relative viability: 0.321
EKVX; first compound 0.8 µM
  relative viability: 0.36
EKVX; first compound 2.53 µM
  relative viability: 0.315
EKVX; first compound 8 µM
  relative viability: 0.388
NCI-H661; first compound 0.08 µM
  relative viability: 0.354
NCI-H661; first compound 0.253 µM
  relative viability: 0.376
NCI-H661; first compound 0.8 µM
  relative viability: 0.339
NCI-H661; first compound 2.53 µM
  relative viability: 0.35
NCI-H661; first compound 8 µM
  relative viability: 0.316
NCI-H1650; first compound 0.08 µM
  relative viability: 0.347
NCI-H1650; first compound 0.253 µM
  relative viability: 0.398
NCI-H1650; first compound 0.8 µM
  relative viability: 0.475
NCI-H1650; first compound 2.53 µM
  relative viability: 0.331
NCI-H1650; first compound 8 µM
  relative viability: 0.307
H3255; first compound 0.253 µM
  relative viability: 0.592
H3255; first compound 0.8 µM
  relative viability: 0.47
H3255; first compound 2.53 µM
  relative viability: 0.584
H3255; first compound 8 µM
  relative viability: 0.659
HCC-44; first compound 0.08 µM
  relative viability: 1.16
HCC-44; first compound 0.253 µM
  relative viability: 0.918
HCC-44; first compound 0.8 µM
  relative viability: 0.811
HCC-44; first compound 2.53 µM
  relative viability: 0.499
HCC-44; first compound 8 µM
  relative viability: 0.983
NCI-H520; first compound 0.08 µM
  relative viability: 0.503
NCI-H520; first compound 0.253 µM
  relative viability: 0.422
NCI-H520; first compound 0.8 µM
  relative viability: 0.42
NCI-H520; first compound 2.53 µM
  relative viability: 0.435
NCI-H520; first compound 8 µM
  relative viability: 0.366
NCI-H1651; first compound 0.08 µM
  relative viability: 0.618
NCI-H1651; first compound 0.253 µM
  relative viability: 0.697
NCI-H1651; first compound 0.8 µM
  relative viability: 0.655
NCI-H1651; first compound 2.53 µM
  relative viability: 0.611
NCI-H1651; first compound 8 µM
  relative viability: 0.567

Source: the supplement of paper PMC10307832
